Test results: ChEMBL document CHEMBL4028801, “A multifactorial approach to hepatobiliary transporter assessment enables improved therapeutic compound development” (Toxicol Sci, 2013)

Assays:
Bile salt export pump = Bile salt export pump (Homo sapiens, UniProt O95342); experiment: Inhibition of human BSEP overexpressed in Sf9 cell membrane vesicles assessed as uptake of [3H]-taurocholate in presence of ATP measured after 15 to 20 mins by membrane vesicle transport assay; assay type: ADME, cell-based
[1] = biological target: ATP-binding cassette sub-family C member 2 (Homo sapiens, UniProt Q92887); experiment: Inhibition of human MRP2 overexpressed in Sf9 cell membrane vesicles assessed as uptake of [3H]-estradiol-17beta-D-glucuronide in presence of ATP and GSH measured after 20 mins by membrane vesicle transport assay
[2] = biological target: ATP-binding cassette sub-family C member 3 (Homo sapiens, UniProt O15438); experiment: Inhibition of human MRP3 overexpressed in Sf9 insect cell membrane vesicles assessed as uptake of [3H]-estradiol-17beta-D-glucuronide in presence of ATP and GSH measured after 10 mins by membrane vesicle transport assay; assay type: ADME, cell-based
[3] = biological target: T1, ATP-binding cassette sub-family C member 4 (Homo sapiens, UniProt O15439); experiment: Inhibition of human MRP4 overexpressed in Sf9 cell membrane vesicles assessed as uptake of [3H]-estradiol-17beta-D-glucuronide in presence of ATP and GSH measured after 20 mins by membrane vesicle transport assay; assay type: ADME, cell-based
T1 sequence (O15439 whole entry): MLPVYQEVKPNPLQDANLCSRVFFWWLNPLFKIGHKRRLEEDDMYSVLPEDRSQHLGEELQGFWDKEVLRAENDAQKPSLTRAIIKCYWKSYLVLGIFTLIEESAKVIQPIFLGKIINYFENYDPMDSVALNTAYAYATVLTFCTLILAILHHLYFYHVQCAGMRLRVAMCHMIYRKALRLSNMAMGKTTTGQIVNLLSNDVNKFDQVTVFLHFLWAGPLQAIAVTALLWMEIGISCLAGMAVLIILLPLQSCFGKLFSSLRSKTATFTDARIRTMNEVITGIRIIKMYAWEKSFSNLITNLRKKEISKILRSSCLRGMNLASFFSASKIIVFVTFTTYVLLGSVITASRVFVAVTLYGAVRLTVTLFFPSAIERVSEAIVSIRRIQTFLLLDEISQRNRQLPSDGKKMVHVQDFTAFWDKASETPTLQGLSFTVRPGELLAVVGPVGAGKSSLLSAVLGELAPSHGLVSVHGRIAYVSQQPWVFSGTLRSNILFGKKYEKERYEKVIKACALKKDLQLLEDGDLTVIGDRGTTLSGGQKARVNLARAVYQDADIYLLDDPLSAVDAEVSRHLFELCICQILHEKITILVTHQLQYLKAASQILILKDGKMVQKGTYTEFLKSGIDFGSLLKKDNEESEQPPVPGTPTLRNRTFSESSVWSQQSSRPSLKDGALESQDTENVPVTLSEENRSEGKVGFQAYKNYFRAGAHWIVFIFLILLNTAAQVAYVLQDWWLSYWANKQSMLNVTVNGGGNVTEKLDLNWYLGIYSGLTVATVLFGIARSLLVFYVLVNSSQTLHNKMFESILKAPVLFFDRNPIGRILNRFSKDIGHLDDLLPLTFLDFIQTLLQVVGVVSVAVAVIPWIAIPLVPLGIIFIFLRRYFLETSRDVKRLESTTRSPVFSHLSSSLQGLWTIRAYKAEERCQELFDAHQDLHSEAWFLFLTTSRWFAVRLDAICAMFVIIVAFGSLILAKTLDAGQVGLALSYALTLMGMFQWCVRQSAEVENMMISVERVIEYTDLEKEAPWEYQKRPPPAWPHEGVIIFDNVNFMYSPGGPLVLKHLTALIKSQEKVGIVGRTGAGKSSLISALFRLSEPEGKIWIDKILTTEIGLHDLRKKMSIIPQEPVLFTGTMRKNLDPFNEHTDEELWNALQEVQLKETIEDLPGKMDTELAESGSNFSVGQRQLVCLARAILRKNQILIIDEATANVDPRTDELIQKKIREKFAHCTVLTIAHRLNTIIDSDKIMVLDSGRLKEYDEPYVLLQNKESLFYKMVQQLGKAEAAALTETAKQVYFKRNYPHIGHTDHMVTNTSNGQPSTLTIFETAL

[4] = AUC in human at 9 mg, po QD after 24 hrs; assay type: ADME, organism-based; set-up: time < 24 hr, dose 9 mg, route oral; details: in vivo
[5] = Drug concentration at steady state in human at 9 mg, po QD after 24 hrs; assay type: ADME, organism-based; details: in vivo, read-out: Css
[6] = Ratio of drug concentration at steady state in human at 9 mg, po QD after 24 hrs to IC50 for human BSEP overexpressed in Sf9 insect cells; assay type: ADME, organism-based; details: in vivo
[7] = Ratio of drug concentration at steady state in human at 9 mg, po QD after 24 hrs to IC50 for human MRP3 overexpressed in Sf9 insect cells; assay type: ADME, organism-based; details: in vivo
[8] = Ratio of drug concentration at steady state in human at 9 mg, po QD after 24 hrs to IC50 for human MRP4 overexpressed in Sf9 insect cells; assay type: ADME, organism-based; details: in vivo
Homo sapiens = experiment: Cardiotoxicity in human at 20 to 30 mg/day, po; assay type: toxicity
[9] = AUC in human at 10 mg, po after 24 hrs; assay type: ADME, organism-based; set-up: time < 24 hr, dose 10 mg, route oral; details: in vivo
[10] = AUC in human at 5 to 30 mg, po QD after 24 hrs; assay type: ADME, organism-based; details: in vivo
[11] = Drug concentration at steady state in human at 5 to 30 mg, po QD after 24 hrs; assay type: ADME, organism-based; details: in vivo, read-out: Css
[12] = Ratio of drug concentration at steady state in human administered intraocularly as 1 drop QD of 0.03% solution after 24 hrs to IC50 for human BSEP overexpressed in Sf9 insect cells; assay type: ADME; details: topical_or_ocular
[13] = AUC in human at 0.1 to 1 mg, po QD after 24 hrs; assay type: ADME, organism-based; details: in vivo
[14] = Drug concentration at steady state in human at 0.1 to 1 mg, po QD after 24 hrs; assay type: ADME, organism-based; details: in vivo, read-out: Css
[15] = Ratio of drug concentration at steady state in human at 0.1 to 1 mg, po QD after 24 hrs to IC50 for human BSEP overexpressed in Sf9 insect cells; assay type: ADME, organism-based; details: in vivo
[16] = Ratio of drug concentration at steady state in human at 0.1 to 1 mg, po QD after 24 hrs to IC50 for human MRP2 overexpressed in Sf9 insect cells; assay type: ADME, organism-based; details: in vivo
[17] = AUC in human at 0.5 mg, po QD after 24 hrs; assay type: ADME, organism-based; set-up: time < 24 hr, dose 0.5 mg, route oral; details: in vivo
[18] = Drug concentration at steady state in human at 0.5 mg, po QD after 24 hrs; assay type: ADME, organism-based; details: in vivo, read-out: Css
[19] = Ratio of drug concentration at steady state in human at 0.5 mg, po QD after 24 hrs to IC50 for human BSEP overexpressed in Sf9 insect cells; assay type: ADME, organism-based; details: in vivo
[20] = AUC in human at 0.2 mg, po QID after 6 hrs; assay type: ADME, organism-based; set-up: time < 6 hr, dose 0.2 mg, route oral; details: in vivo
[21] = Ratio of drug concentration at steady state in human at 0.2 mg, po QID after 6 hrs to IC50 for human BSEP overexpressed in Sf9 insect cells; assay type: ADME, organism-based; details: in vivo
[22] = Ratio of drug concentration at steady state in human at 0.2 mg, po QID after 6 hrs to IC50 for human MRP4 overexpressed in Sf9 insect cells; assay type: ADME, organism-based; details: in vivo

Sequence of ATP-binding cassette sub-family C member 2 (Q92887 whole entry): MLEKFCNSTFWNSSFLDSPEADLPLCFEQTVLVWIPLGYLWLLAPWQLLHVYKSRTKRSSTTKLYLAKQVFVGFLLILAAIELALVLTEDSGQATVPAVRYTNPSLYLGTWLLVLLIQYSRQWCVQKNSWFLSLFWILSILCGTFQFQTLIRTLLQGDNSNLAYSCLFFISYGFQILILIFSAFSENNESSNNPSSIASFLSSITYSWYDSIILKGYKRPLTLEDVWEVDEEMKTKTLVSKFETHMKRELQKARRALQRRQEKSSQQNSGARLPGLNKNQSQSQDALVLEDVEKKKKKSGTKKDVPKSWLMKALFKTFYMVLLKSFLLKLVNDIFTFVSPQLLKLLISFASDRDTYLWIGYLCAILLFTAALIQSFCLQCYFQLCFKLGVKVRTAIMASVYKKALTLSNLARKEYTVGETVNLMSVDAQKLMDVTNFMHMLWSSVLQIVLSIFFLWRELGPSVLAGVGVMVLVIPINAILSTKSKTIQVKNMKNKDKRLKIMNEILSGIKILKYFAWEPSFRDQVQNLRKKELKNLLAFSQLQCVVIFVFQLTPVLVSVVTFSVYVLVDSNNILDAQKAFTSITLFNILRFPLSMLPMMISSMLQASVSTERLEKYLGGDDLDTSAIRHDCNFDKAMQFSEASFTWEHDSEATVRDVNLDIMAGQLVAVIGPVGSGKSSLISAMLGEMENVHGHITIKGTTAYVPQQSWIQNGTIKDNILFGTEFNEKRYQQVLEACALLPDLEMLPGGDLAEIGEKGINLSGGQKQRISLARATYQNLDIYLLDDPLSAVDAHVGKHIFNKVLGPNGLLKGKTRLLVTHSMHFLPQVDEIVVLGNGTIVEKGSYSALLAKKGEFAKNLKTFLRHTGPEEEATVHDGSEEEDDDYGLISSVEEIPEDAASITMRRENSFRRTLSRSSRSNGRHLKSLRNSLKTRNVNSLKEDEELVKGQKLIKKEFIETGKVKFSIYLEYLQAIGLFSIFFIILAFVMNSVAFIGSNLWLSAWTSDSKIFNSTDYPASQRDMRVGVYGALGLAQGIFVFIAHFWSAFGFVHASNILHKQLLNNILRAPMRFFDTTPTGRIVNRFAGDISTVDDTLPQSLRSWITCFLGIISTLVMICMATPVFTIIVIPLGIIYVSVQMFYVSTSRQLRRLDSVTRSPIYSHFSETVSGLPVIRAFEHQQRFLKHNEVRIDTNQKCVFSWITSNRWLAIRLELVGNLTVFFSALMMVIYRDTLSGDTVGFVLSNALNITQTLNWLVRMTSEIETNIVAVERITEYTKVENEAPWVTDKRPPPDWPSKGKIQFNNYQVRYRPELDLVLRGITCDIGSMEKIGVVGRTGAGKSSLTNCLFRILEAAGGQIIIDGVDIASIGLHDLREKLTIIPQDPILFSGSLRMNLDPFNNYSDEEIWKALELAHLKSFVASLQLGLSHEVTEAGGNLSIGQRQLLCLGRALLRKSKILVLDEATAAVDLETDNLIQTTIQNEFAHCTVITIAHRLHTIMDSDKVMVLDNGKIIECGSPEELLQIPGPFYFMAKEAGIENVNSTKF
Sequence of ATP-binding cassette sub-family C member 3 (O15438 whole entry): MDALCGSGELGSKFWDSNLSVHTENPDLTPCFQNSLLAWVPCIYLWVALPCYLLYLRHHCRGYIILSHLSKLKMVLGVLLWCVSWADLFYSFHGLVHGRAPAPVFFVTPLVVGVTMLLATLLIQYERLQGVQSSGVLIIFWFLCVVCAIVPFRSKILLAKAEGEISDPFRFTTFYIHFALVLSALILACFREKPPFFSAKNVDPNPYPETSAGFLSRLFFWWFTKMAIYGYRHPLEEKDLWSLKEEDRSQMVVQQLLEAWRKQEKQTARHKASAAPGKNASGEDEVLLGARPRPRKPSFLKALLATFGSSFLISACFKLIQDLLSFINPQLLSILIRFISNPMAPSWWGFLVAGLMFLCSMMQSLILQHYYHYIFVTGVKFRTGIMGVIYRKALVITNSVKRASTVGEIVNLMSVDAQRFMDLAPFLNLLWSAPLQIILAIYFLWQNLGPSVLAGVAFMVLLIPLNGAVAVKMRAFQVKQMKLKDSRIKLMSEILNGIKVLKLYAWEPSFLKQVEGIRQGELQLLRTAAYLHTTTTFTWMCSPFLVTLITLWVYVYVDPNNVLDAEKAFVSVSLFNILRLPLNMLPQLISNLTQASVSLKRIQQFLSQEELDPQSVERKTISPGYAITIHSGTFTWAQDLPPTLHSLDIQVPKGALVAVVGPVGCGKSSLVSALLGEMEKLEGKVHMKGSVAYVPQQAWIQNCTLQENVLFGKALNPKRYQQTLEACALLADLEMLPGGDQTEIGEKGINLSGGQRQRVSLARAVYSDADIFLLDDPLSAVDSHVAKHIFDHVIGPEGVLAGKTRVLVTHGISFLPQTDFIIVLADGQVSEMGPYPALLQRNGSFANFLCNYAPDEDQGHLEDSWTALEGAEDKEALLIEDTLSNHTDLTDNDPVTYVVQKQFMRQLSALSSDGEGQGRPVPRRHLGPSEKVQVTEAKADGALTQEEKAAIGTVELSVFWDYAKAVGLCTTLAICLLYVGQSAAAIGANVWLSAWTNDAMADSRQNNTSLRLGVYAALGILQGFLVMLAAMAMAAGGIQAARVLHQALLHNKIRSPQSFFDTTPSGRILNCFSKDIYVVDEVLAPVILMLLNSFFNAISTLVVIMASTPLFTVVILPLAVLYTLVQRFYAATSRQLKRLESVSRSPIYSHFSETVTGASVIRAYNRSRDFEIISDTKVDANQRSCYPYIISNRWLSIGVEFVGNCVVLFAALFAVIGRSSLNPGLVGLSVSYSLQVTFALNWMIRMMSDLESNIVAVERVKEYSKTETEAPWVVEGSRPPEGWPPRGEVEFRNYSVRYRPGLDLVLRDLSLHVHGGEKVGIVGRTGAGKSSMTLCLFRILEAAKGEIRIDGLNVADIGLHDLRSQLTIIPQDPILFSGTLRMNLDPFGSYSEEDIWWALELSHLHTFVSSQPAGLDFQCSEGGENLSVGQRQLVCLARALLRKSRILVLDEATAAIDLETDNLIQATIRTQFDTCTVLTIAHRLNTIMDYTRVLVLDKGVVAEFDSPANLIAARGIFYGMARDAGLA
Sequence of Bile salt export pump (O95342 whole entry): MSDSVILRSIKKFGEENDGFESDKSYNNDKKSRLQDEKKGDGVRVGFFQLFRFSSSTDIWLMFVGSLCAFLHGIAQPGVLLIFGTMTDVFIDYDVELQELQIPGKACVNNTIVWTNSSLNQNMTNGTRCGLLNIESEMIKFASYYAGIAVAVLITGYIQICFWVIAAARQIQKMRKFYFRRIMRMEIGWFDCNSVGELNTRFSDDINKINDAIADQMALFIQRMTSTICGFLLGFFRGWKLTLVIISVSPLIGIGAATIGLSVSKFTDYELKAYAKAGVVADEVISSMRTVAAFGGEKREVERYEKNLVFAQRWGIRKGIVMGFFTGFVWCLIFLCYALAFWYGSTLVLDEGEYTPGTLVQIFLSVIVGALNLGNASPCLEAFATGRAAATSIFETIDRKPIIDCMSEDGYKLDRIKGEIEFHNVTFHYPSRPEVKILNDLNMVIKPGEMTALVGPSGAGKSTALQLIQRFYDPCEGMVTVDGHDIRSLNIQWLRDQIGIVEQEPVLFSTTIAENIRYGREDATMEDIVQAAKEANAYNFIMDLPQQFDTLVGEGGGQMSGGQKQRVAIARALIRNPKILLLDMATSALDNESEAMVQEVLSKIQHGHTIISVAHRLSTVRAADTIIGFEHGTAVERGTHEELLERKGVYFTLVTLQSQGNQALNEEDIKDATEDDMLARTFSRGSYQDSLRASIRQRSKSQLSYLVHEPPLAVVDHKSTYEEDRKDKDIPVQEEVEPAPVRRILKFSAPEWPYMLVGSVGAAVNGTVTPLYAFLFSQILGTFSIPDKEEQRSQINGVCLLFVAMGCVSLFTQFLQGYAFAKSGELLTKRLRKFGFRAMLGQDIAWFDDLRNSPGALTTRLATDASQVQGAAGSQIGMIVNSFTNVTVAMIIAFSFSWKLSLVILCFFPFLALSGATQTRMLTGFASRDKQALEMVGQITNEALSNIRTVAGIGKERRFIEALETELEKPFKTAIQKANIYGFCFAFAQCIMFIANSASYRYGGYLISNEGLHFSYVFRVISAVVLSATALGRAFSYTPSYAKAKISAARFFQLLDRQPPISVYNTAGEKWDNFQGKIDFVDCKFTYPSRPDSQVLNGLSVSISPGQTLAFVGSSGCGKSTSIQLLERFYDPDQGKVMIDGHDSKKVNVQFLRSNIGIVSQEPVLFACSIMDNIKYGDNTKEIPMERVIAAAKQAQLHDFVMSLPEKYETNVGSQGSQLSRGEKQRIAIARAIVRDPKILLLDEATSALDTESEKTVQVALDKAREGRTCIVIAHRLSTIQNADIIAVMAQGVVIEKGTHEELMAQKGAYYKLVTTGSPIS

| Structure (SMILES) | IC50 (Bile salt export pump) | IC50 [1] | IC50 [2] | IC50 [3] | further results |
| --- | --- | --- | --- | --- | --- |
| CCCC1O[C@@H]2C[C@H]3[C@@H]4CCC5=CC(=O)C=C[C@]5(C)[C@H]4[C@@H](O)C[C@]3(C)[C@]2(C(=O)CO)O1 (stereo not given in full) [BUDESONIDE] | 46 µM | > 133 µM | 54.5 µM | 37 µM | AUC at 24 h [4]: 15.1 nM·h; concentration at 24 h [5]: 0.629 nM; Ratio [6]: 0.00001; Ratio [7]: 0; Ratio [8]: 0 |
| COc1ccc(CCN2CCC(Nc3nc4ccccc4n3Cc3ccc(F)cc3)CC2)cc1 [ASTEMIZOLE] |  | > 133 µM | > 133 µM | > 133 µM | Activity (Homo sapiens): Toxic; AUC at 24 h [9]: 24 nM·h |
| CCN(CC)CC#CCOC(=O)C(O)(c1ccccc1)C1CCCCC1 (stereo not given) [OXYBUTYNIN] |  | > 133 µM | > 133 µM | > 133 µM | AUC at 24 h [10]: 39 nM·h; concentration at 24 h [11]: 2 nM |
| CCNC(=O)CCC/C=C\C[C@@H]1[C@@H](/C=C/[C@@H](O)CCc2ccccc2)[C@H](O)C[C@@H]1O [BIMATOPROST] | 40.4 µM | > 133 µM | > 133 µM | > 133 µM | Ratio [12]: 2e-7 |
| COC(=O)[C@H]1[C@H]2C[C@@H]3c4[nH]c5cc(OC)ccc5c4CCN3C[C@H]2C[C@@H](OC(=O)c2cc(OC)c(OC)c(OC)c2)[C@@H]1OC [RESERPINE] |  | 68.4 µM | > 133 µM | > 133 µM | AUC at 24 h [13]: 14 nM·h; concentration at 24 h [14]: 1 nM; Ratio [15]: 0.00007; Ratio [16]: 0 |
| C[C@]12C=CC(=O)N[C@@H]1CC[C@@H]1[C@@H]2CC[C@]2(C)[C@@H](C(=O)Nc3cc(C(F)(F)F)ccc3C(F)(F)F)CC[C@@H]12 [DUTASTERIDE] | 29.8 µM | > 133 µM | > 133 µM | > 133 µM | AUC at 24 h [17]: 78 nM·h; concentration at 24 h [18]: 3 nM; Ratio [19]: 0.00011 |
| CCCC[C@](C)(O)C/C=C/[C@H]1[C@H](O)CC(=O)[C@@H]1CCCCCCC(=O)OC | 27.7 µM | > 133 µM | > 133 µM | 46 µM | AUC at 6 h [20]: 1 nM·h; Ratio [21]: 0.00001; Ratio [22]: 0 |
